Laboratory results as given in PubChem BioAssay AID1259408 (Genetic Toxicology Data Bank (GENE-TOX), 2018).
Activity calls are given as the source filed them. How the calls were made is not given here.

Test system: GENE-TOX genotoxicity assays, various organisms and cells
Assay: GENE-TOX mutagenicity studies
Settings: for call: Assay Type: In vivo carcinogenicity studies, Assay Code: CCG+
Excerpt: GENE-TOX provides genetic toxicology (mutagenicity) test data from expert peer review of open scientific literature for more than 3,000 chemicals from the United States Environmental Protection Agency (EPA). GENE-TOX was established to select assay systems for evaluation, review data in the scientific literature, and recommend proper testing protocols and evaluation procedures for these systems.
GENE-TOX covers the years 1991 - 1998. It is no longer updated.
This is an archive assay for GENE-TOX mutagenicity studies.

[1] = Species/Cell Type: Human lymphocytes, Assay Type: Sister-chromatid exchange (SCE) in vitro, Assay Code: SCL+D, Dose Response: With dose response, Evaluation Type: Evaluation B (Post-1980)
[2] = Species/Cell Type: Human, Assay Type: Sister-chromatid exchange (SCE) in vitro, Assay Code: SC1+D, Dose Response: With dose response, Evaluation Type: Evaluation B (Post-1980)
[3] = Species/Cell Type: Nonhuman, Assay Type: Sister-chromatid exchange (SCE) in vitro, Assay Code: SC2+D, Dose Response: With dose response, Evaluation Type: Evaluation B (Post-1980)
[4] = Species/Cell Type: Saccharomyces cerevisiae, Assay Type: Mitotic recombination or gene conversion, Assay Code: YEC+, Evaluation Type: Evaluation A (Pre-1980)
[5] = Species/Cell Type: Salmonella typhimurium (one or more of the five standard strains: TA98, TA100, TA1535, TA1537, and TA1538), Assay Type: Histidine reverse gene mutation, Ames assay, Assay Code: SAL+, Evaluation Type: Evaluation A (Pre-1980)
[6] = Species/Cell Type: Drosophila melanogaster, Assay Type: Sex-linked recessive lethal gene mutation, Assay Code: SRL+, Evaluation Type: Evaluation A (Pre-1980)
[7] = Species/Cell Type: Drosophila melanogaster, Sex: Male, Assay Type: Heritable translocation test, chromosome aberrations, Assay Code: DHT+, Evaluation Type: Evaluation A (Pre-1980)
[8] = Species/Cell Type: Mammalian polychromatic erythrocytes, Assay Type: Micronucleus test, chromosome aberrations, Assay Code: MNT+, Evaluation Type: Evaluation A (Pre-1980)
[9] = Species/Cell Type: Nonhuman, Evaluation Type: Evaluation A (Pre-1980)
[10] = Species/Cell Type: Salmonella typhimurium, Assay Type: Forward and reverse gene mutation, host-mediated assay, Assay Code: HMA-, Evaluation Type: Evaluation A (Pre-1980)
[11] = Species/Cell Type: Allium cepa, Assay Type: Chromosome aberrations, Assay Code: ALC+, Evaluation Type: Evaluation A (Pre-1980)
[12] = Species/Cell Type: Salmonella typhimurium (one or more of the five standard strains: TA98, TA100, TA1535, TA1537, and TA1538), Assay Type: Histidine reverse gene mutation, Ames assay, Assay Code: SALT, Evaluation Type: Evaluation A (Pre-1980)

With `CCS(=O)CCSP(=O)(OC)OC` (stereo not given) the mutagenic call (Species/Cell Type: Drosophila melanogaster, Assay Type: Sex-linked recessive lethal gene mutation, Assay Code: SRLT, Evaluation Type: Evaluation A (Pre-1980)) was “no conclusion”, the mutagenic call [1] was “active; positive” and the mutagenic call [2] was “active; positive”. The mutagenic call (Species/Cell Type: Mammalian polychromatic erythrocytes, Assay Type: Micronucleus test, chromosome aberrations, Assay Code: MNT+, Evaluation Type: Evaluation B (Post-1980)) was “active; positive”, the mutagenic call [3] was “active; positive” and the mutagenic call [4] was “active; positive”.
For `CC(C)(c1ccc(O)cc1)c1ccc(O)cc1` (tested in a mixture with another compound), the mutagenic call [5] was “active; positive”.
For `CCOC(N)=O`, the mutagenic call (Species/Cell Type: Drosophila melanogaster, Assay Type: Aneuploidy, sex chromosome gain, chromosome aberrations, Assay Code: DAG-M, Evaluation Type: Evaluation A (Pre-1980)) was “inactive; negative”, the mutagenic call (Species/Cell Type: Drosophila melanogaster, Assay Type: Aneuploidy, whole sex chromosome loss, chromosome aberrations, Assay Code: DAC+M, Evaluation Type: Evaluation A (Pre-1980)) was “active; positive” and the mutagenic call [6] was “active; positive”. The mutagenic call [7] was “active; positive”, the mutagenic call (Species/Cell Type: Escherichia coli WP2, Assay Type: Tryptophan reverse gene mutation, Assay Code: WP2-, Evaluation Type: Evaluation A (Pre-1980)) was “inactive; negative” and the mutagenic call (Species/Cell Type: Escherichia coli polA (W3110 vs P3478), Assay Type: Rec-assay, DNA effects (bacterial DNA repair), Assay Code: RE2-, Evaluation Type: Evaluation A (Pre-1980)) was “inactive; negative”. For the same compound, the mutagenic call (Species/Cell Type: Escherichia coli polA (W3119 vs P3478), Assay Type: Rec-assay, DNA effects (bacterial DNA repair), Assay Code: RE1T, Evaluation Type: Evaluation A (Pre-1980)) was “no conclusion”, the mutagenic call (Species/Cell Type: Fischer rat embryo (RLV/1706) cells, Assay Type: Cell transformation, viral enhanced, Assay Code: CTR+, Evaluation Type: Evaluation A (Pre-1980)) was “active; positive” and the mutagenic call (Species/Cell Type: Human diploid fibroblasts, Assay Type: Unscheduled DNA synthesis (UDS) in vitro, DNA effects, Assay Code: UDHT, Evaluation Type: Evaluation A (Pre-1980)) was “no conclusion”. For the same compound, the mutagenic call [1] was “active; positive”, the mutagenic call [2] was “active; positive” and the mutagenic call [8] was “active; positive”. For the same compound, the mutagenic call (Species/Cell Type: Mouse embryo (AKR/ME) cells, Assay Type: Cell transformation, Assay Code: CTK+, Evaluation Type: Evaluation A (Pre-1980)) was “active; positive”, the mutagenic call (Species/Cell Type: Mouse, Sex: Male, Assay Type: Sperm morphology, Assay Code: SPI-, Evaluation Type: Evaluation A (Pre-1980)) was “inactive; negative” and the mutagenic call (Species/Cell Type: Neurospora crassa, Assay Type: Reverse gene mutation, Assay Code: NER+, Evaluation Type: Evaluation A (Pre-1980)) was “active; positive”. The call [9] was “active; positive”, the mutagenic call (Species/Cell Type: Nonhuman, Assay Type: Sister-chromatid exchange (SCE) in vitro, Assay Code: SC2+D, Dose Response: With dose response, Evaluation Type: Evaluation A (Pre-1980)) was “active; positive” and the mutagenic call (Species/Cell Type: Nonhuman, Assay Type: Sister-chromatid exchange (SCE) in vivo, Assay Code: SC3+D, Dose Response: With dose response, Evaluation Type: Evaluation B (Post-1980)) was “active; positive”. The mutagenic call [4] was “active; positive”, the mutagenic call (Species/Cell Type: Saccharomyces cerevisiae, Assay Type: Mitotic recombination or gene conversion, Assay Code: YEH-*, Activation: With metabolic activation, Evaluation Type: Evaluation A (Pre-1980)) was “inactive; negative” and the mutagenic call (Species/Cell Type: Salmonella typhimurium (one or more of the five standard strains: TA98, TA100, TA1535, TA1537, and TA1538), Assay Type: Histidine reverse gene mutation, Ames assay, Assay Code: SAL-, Evaluation Type: Evaluation A (Pre-1980)) was “inactive; negative”. The mutagenic call [10] was “inactive; negative” and the mutagenic call (Species/Cell Type: Syrian hamster embryo (SHE) cells, Assay Type: Cell transformation, clonal assay, Assay Code: CTC+*, Activation: With metabolic activation, Evaluation Type: Evaluation A (Pre-1980)) was “active; positive”.
With `COP(=O)(OC)O/C(C)=C/C(=O)N(C)C` the mutagenic call [3] was “active; positive” and the mutagenic call [4] was “active; positive”.
With `Oc1ccc(O)c(O)c1` the mutagenic call [11] was “active; positive”.
In the case of `CC(=O)OC1C2OC2C2=CC(O)C3(CC2(C)C1C)OC3(C)CO` (stereo not given), the mutagenic call (Species/Cell Type: Saccharomyces cerevisiae, Assay Type: Mitotic recombination or gene conversion, Assay Code: YEC-, Evaluation Type: Evaluation A (Pre-1980)) is reported as “inactive; negative”.
`OCC1=C[C@H](N[C@H]2C[C@H](CO)[C@@H](O[C@@H]3O[C@H](CO)[C@@H](O)[C@H](O)[C@H]3O)[C@H](O)[C@H]2O)[C@H](O)[C@@H](O)[C@@H]1O` was tested, and the mutagenic call (Species/Cell Type: Bacillus subtilis (H17 vs M45), Assay Type: Rec-assay, spot test, DNA effects (bacterial DNA repair), Assay Code: REW-, Evaluation Type: Evaluation A (Pre-1980)) was “inactive; negative”.
`O=C1c2ccccc2-c2ccc(Oc3ccc(S(=O)(=O)O)cc3)c3cccc1c23` was tested, and the mutagenic call [5] was “active; positive”.
In the case of `CCN(CCCl)CCCNc1c2ccccc2nc2c1ccc1ccccc12`, the mutagenic call (Species/Cell Type: Chinese hamster ovary (CHO) cells, Assay Type: Forward gene mutation at the HPRT locus, Assay Code: CHO+D, Dose Response: With dose response, Evaluation Type: Evaluation A (Pre-1980)) is reported as “active; positive”.
For `C=CCC1=C(C)C(OC(=O)[C@@H]2[C@@H](C=C(C)C)C2(C)C)CC1=O` (stereo not given in full), the mutagenic call (Species/Cell Type: Human diploid fibroblasts, Assay Type: Unscheduled DNA synthesis (UDS) in vitro, DNA effects, Assay Code: UDH-, Evaluation Type: Evaluation A (Pre-1980)) was “inactive; negative” and the mutagenic call (Species/Cell Type: Saccharomyces cerevisiae, Assay Type: Mitotic recombination or gene conversion, Assay Code: YEH-, Evaluation Type: Evaluation A (Pre-1980)) was “inactive; negative”.
In the case of `c1ccc2c(c1)cc1ccc3c4ccccc4cc4ccc2c1c43`, the call [9] is reported as “active; positive”.
With `CN(C)c1ccc(C#N)cc1` the mutagenic call (Species/Cell Type: Mammalian polychromatic erythrocytes, Assay Type: Micronucleus test, chromosome aberrations, Assay Code: MNTT, Evaluation Type: Evaluation B (Post-1980)) was “no conclusion”.
With `O=NN1CCNCC1` the mutagenic call (Species/Cell Type: Salmonella typhimurium, Assay Type: Forward and reverse gene mutation, host-mediated assay, Assay Code: HMA+, Evaluation Type: Evaluation A (Pre-1980)) was “active; positive”.
In the case of `CC(=O)Nc1ccccc1`, the mutagenic call (Species/Cell Type: Human, Assay Type: Sister-chromatid exchange (SCE) in vitro, Assay Code: SC1T, Evaluation Type: Evaluation B (Post-1980)) is reported as “no conclusion”, the mutagenic call [12] is reported as “no conclusion” and the mutagenic call [10] is reported as “inactive; negative”.
For `C/C=C/C=C/C(=O)O`, the mutagenic call (Species/Cell Type: Nonhuman, Assay Type: Sister-chromatid exchange (SCE) in vitro, Assay Code: SC2T, Evaluation Type: Evaluation A (Pre-1980)) was “no conclusion”.
In the case of `Nc1cccc(N)c1`, the mutagenic call [11] is reported as “active; positive”, the mutagenic call (Species/Cell Type: Rodents, Sex: Male, Assay Type: Dominant lethal test, Assay Code: DLTT, Evaluation Type: Evaluation A (Pre-1980)) is reported as “no conclusion” and the mutagenic call (Species/Cell Type: Salmonella typhimurium (one or more of the five standard strains: TA98, TA100, TA1535, TA1537, and TA1538), Assay Type: Histidine reverse gene mutation, Ames assay, Assay Code: SAL+*, Activation: With metabolic activation, Evaluation Type: Evaluation A (Pre-1980)) is reported as “active; positive”. The mutagenic call (Species/Cell Type: Syrian hamster embryo (SHE) cells, Assay Type: Cell transformation, clonal assay, Assay Code: CTC+, Evaluation Type: Evaluation A (Pre-1980)) was “active; positive”.
In the case of `CN(C)P(=O)(N(C)C)N(C)C`, the mutagenic call [6] is reported as “active; positive”, the mutagenic call [7] is reported as “active; positive” and the mutagenic call [8] is reported as “active; positive”. The mutagenic call (Species/Cell Type: Mouse, Sex: Male, Assay Type: Sperm morphology, Assay Code: SPI+, Evaluation Type: Evaluation A (Pre-1980)) was “active; positive”, the call [9] was “active; positive” and the mutagenic call (Species/Cell Type: Nonhuman, Assay Type: Sister-chromatid exchange (SCE) in vitro, Assay Code: SC2+D*, Activation: With metabolic activation, Dose Response: With dose response, Evaluation Type: Evaluation B (Post-1980)) was “active; positive”. The mutagenic call (Species/Cell Type: Rabbit, Sex: Male, Assay Type: Sperm morphology, Assay Code: SPR+, Evaluation Type: Evaluation A (Pre-1980)) was “active; positive”, the mutagenic call (Species/Cell Type: Rodents, Sex: Male, Assay Type: Dominant lethal test, Assay Code: DLT+, Evaluation Type: Evaluation A (Pre-1980)) was “active; positive” and the mutagenic call (Species/Cell Type: Tradescantia species, Assay Type: Gene mutation, Assay Code: TRM+D, Dose Response: With dose response, Evaluation Type: Evaluation A (Pre-1980)) was “active; positive”.
`[Zn]` was tested, and the mutagenic call (Species/Cell Type: Human lymphocytes or leukocytes, Assay Type: Chromosome aberrations in vivo, Assay Code: CY8T, Evaluation Type: Evaluation A (Pre-1980)) was “no conclusion”.
In the case of `CCCCNC(=O)NS(=O)(=O)c1ccc(N)cc1`, the mutagenic call (Species/Cell Type: Nonhuman, Assay Type: Sister-chromatid exchange (SCE) in vivo, Assay Code: SC3T, Evaluation Type: Evaluation B (Post-1980)) is reported as “no conclusion”.
In the case of `Cc1cc(N=Nc2c(O)ccc3ccccc23)c(S(=O)(=O)O)cc1Cl`, the mutagenic call [12] is reported as “no conclusion”.
With `Nc1ccc(-c2nc(NCCO)c3ccccc3n2)s1` the mutagenic call [12] was “no conclusion”.
`O=S(O)(O)=S` was tested, and the mutagenic call (Species/Cell Type: Allium cepa, Assay Type: Chromosome aberrations, Assay Code: ALC-, Evaluation Type: Evaluation A (Pre-1980)) was “inactive; negative”.
For `Nc1ccc2ccccc2c1N=Nc1ccccc1`, the mutagenic call [12] was “no conclusion”.
